Active and inactive are the calls of the source.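 The calls were made as follows: active = CC50 at or below 10 µM in either panel, but not in both panels; inactive = the rest.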
Experiment: HEK293T cell cytotoxicity, dose response, cytotoxicity control for LYPLA1/LYPLA2 inhibitor project, WST-1 absorbance, serum-free and serum medium (AID 651991)
Details: HEK293T viability, 48 h

| SMILES | CC50 (with 10% FCS) | CC50 (without serum) |
| --- | --- | --- |
| O=C(c1cc2c(s1)-c1ccccc1S(=O)(=O)C2)N1CCN(c2ccc(Cl)cc2)CC1 | > 50 µM (inactive) | > 50 µM (inactive) |
| COc1ccc(N2CCN(C(=O)c3cc4c(s3)-c3ccccc3S(=O)(=O)C4)CC2)cc1 | > 50 µM (inactive) | > 50 µM (inactive) |
| O=C(CN1CCN(C(=O)c2ccco2)CC1)Nc1cc(Cl)ccc1Cl | > 50 µM (inactive) | > 50 µM (inactive) |
| O=C(CN1CCN(C(=O)c2ccco2)CC1)Nc1cc(C(F)(F)F)ccc1Cl | > 50 µM (inactive) | > 50 µM (inactive) |
